Test results as given in PubChem BioAssay (NCI).
Several values for one entry are separate records, joined by “and”; a condition that tells them apart may be missing. Equal entries are not always repeated.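 Protocol summary: plate cells (96-well), add compound at 5 concentrations, incubate 48 h, interpolate endpoints linearly. The concentration for 50% growth inhibition is given as GI50. TGI: total growth inhibition.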

What was measured:
Assay in all cases: DTP human tumour cell line panel, 48 h
A498 renal = system: A498 renal
CAKI-1 renal = system: CAKI-1 renal
LOX IMVI melanoma = system: LOX IMVI melanoma
MDA-N = system: MDA-N
OVCAR-5 ovarian = system: OVCAR-5 ovarian
SF-295 CNS = system: SF-295 CNS
SK-MEL-28 melanoma = system: SK-MEL-28 melanoma
UACC-257 melanoma = system: UACC-257 melanoma
UACC-62 melanoma = system: UACC-62 melanoma

SMILES	TGI (A498 renal)	TGI (CAKI-1 renal)	TGI (LOX IMVI melanoma)	TGI (MDA-N)	TGI (OVCAR-5 ovarian) [µM]	TGI (SF-295 CNS)	TGI (SK-MEL-28 melanoma)	TGI (UACC-257 melanoma)	TGI (UACC-62 melanoma)	GI50 (A498 renal) [µM]	GI50 (CAKI-1 renal) [µM]	GI50 (LOX IMVI melanoma) [µM]	GI50 (MDA-N) [µM]	GI50 (SF-295 CNS) [µM]	GI50 (SK-MEL-28 melanoma) [µM]	GI50 (UACC-257 melanoma) [µM]	GI50 (UACC-62 melanoma) [µM]	GI50 (OVCAR-5 ovarian) [µM]
O=C(O)CC(Cc1ccccc1)C(=O)O (stereo not given)	> 100 µM	> 100 µM	> 100 µM	> 100 µM	> 100	> 100 µM	> 100 µM	> 100 µM	> 100 µM	–	–	–	–	–	–	–	–	–
C(=C/c1ccc2nc(-c3ccc(/C=C/C=N/NC4=NCCCN4)cc3)cn2c1)/C=N/NC1=NCCCN1	> 100 µM	30.2 µM	–	> 100 µM	> 100	> 100 µM	> 100 µM	> 100 µM	> 100 µM	–	–	–	–	–	–	–	–	–
COC(=O)c1ccc2c(c1)CCN2C(=O)c1cc2c(cc1Br)OCO2	30.8 µM and > 100 µM	50 µM and > 100 µM	50 µM and 94.7 µM	0.244 µM and 0.841 µM	> 50	50 µM and > 100 µM	50 µM and > 100 µM	18.8 µM and 75.1 µM	50 µM and > 100 µM	2.62	0.953	0.936	0.252	0.683	19.2	16.6	0.995	–
Cc1cc(S(=O)(=O)Nc2nc(N)n(-c3ccccc3)n2)c(S)cc1Cl	> 100 µM	> 100 µM	> 100 µM	> 100 µM	> 100	–	> 100 µM	> 100 µM	> 100 µM	–	–	–	–	–	–	–	–	–
O=C(O)c1cc(/C=C/c2ccc(O)c(O)c2)ccc1O	–	> 100 µM	> 100 µM	> 100 µM	> 100	> 100 µM	> 100 µM	> 100 µM	> 100 µM	–	–	–	–	–	–	–	–	–
C/C(=C/CC[C@](C)(OC1OC(CO)C(O)C(O)C1OC1OC(C)C(O)C(O)C1O)[C@H]1CC[C@]2(C)[C@@H]1CC[C@@H]1[C@@]3(C)CC[C@H](O)C(C)(C)[C@@H]3C[C@H](O)[C@]12C)CO (stereo not given in full)	> 100 µM	> 100 µM	> 100 µM	> 100 µM	> 100	> 100 µM	> 100 µM	> 100 µM	> 100 µM	–	–	–	–	–	–	–	–	–
CCNc1nc2ccccc2nc1NCC	> 100 µM	> 100 µM	> 100 µM	> 100 µM	> 100	> 100 µM	> 100 µM	> 100 µM	> 100 µM	–	–	–	–	–	–	–	–	–
O=C(/C=C/c1ccco1)c1ccc(Nc2ccnc3cc(Cl)ccc23)cc1	> 100 µM	> 100 µM	> 100 µM	–	> 100	> 100 µM	> 100 µM	> 100 µM	> 100 µM	1.29	> 100	6.41	–	> 100	74.9	76	> 100	52
COc1ccc(/C=C/C=C2C(=O)NC(=S)NC2=O)cc1	> 100 µM	23.8 µM	3.97 µM	15.2 µM	47.1	29.9 µM	3.45 µM	22 µM	9.1 µM	–	–	–	–	–	–	–	–	–
COc1c2c(cc3oc(=O)ccc13)OC(C)(C)C=C2	–	29 µM	41.8 µM	91.7 µM	–	> 125 µM	75.9 µM	85.2 µM	42.2 µM	–	–	–	–	–	–	–	–	–
Nc1c(Cl)ncnc1NCC1(CO)CCC1	> 100 µM	–	> 100 µM	> 100 µM	> 100	> 100 µM	> 100 µM	> 100 µM	–	–	–	–	–	–	–	–	–	–
NC(=O)c1ccc(N)nc1	> 400 µM	> 400 µM	> 400 µM	> 400 µM	> 400	> 400 µM	> 400 µM	> 400 µM	> 400 µM	–	–	–	–	–	–	–	–	–
C=CCCCN1C(=O)C2C3c4ccccc4C(C=O)(c4ccccc43)C2C1=O (stereo not given)	–	50.9 µM	22.1 µM	27.9 µM	45.1	26.1 µM	31.9 µM	28.9 µM	36.6 µM	–	–	–	–	–	–	–	–	–
O=C1NC(N2CCOCC2)=N/C1=C\c1ccccc1	–	> 100 µM	> 100 µM	> 100 µM	> 100	> 100 µM	> 100 µM	> 100 µM	> 100 µM	–	–	–	–	–	–	–	–	–
Brc1ccc2c(c1)[C@H]1CCc3c([nH]c4ccccc34)[C@H]1N2	–	21.8 µM	19.1 µM	28.7 µM	27	24.5 µM	27 µM	25.6 µM	24 µM	–	–	–	–	–	–	–	–	–
COc1cc(C(C)(C)C)c(OC(=O)/C=C/C(=O)O/C=C/[N+](=O)[O-])c(C(C)(C)C)c1	96.6 µM	57.5 µM	75.6 µM	> 100 µM	> 100	> 100 µM	–	> 100 µM	> 100 µM	–	–	–	–	–	–	–	–	–
CO/C=C(/C(=O)OC)c1ccccc1[C@H]1C[C@@H]1c1ccc(OC)cc1	> 100 µM	57.4 µM	–	56.7 µM	> 100	46.3 µM	52.2 µM	72.8 µM	64.7 µM	–	–	–	–	–	–	–	–	–
NCCCCN(CCCN)C(=O)OCc1ccccc1	> 100 µM	> 100 µM	–	–	> 100	> 100 µM	> 100 µM	> 100 µM	> 100 µM	–	–	–	–	–	–	–	–	–
COC12OC3(C4OC41)C(C(=O)O[C@H]3CO[Si](C)(C)C(C)(C)C)C2S(=O)(=O)c1ccccc1 (stereo not given in full)	–	3.33 µM	–	–	> 12.2	> 100 µM	> 5.53 µM	> 12.6 µM	> 7.52 µM	–	–	–	–	–	–	–	–	–
O=C1CCCc2ccc3c(c21)CC1(Cc2cc4c(cc2C1)CCCC4)C3	> 100 µM	–	28.5 µM	–	72.3	75.7 µM	63.7 µM	47.8 µM	49.2 µM	–	–	–	–	–	–	–	–	–
CSc1nc(NC2CC2)c2c(n1)Sc1nc3ccccc3n1N=C2	60.8 µM	> 100 µM	> 100 µM	> 100 µM	> 100	–	> 100 µM	> 100 µM	76.9 µM	–	–	–	–	–	–	–	–	–
Oc1cccc(-c2cc(=S)ss2)c1	–	45.7 µM	33.3 µM	–	30.8	29.5 µM	43.8 µM	28.4 µM	38.2 µM	–	–	–	–	–	–	–	–	–
Nc1nc(-c2ccccc2)cc(-c2ccc(F)cc2)c1-c1ccc(Cl)cc1	–	> 100 µM	> 100 µM	> 100 µM	> 100	> 100 µM	> 100 µM	> 100 µM	> 100 µM	–	–	–	–	–	–	–	–	–
Clc1ccc2nc3c(c(-c4ccccc4)nn3-c3ccccc3)c(-c3ccccc3)c2c1	–	–	> 100 µM	> 100 µM	> 100	> 100 µM	> 100 µM	–	> 100 µM	–	–	–	–	–	–	–	–	–
